From patent EP1714676A2, “Use of N-substituted-1,5-dideoxy-1,5-imino-D-glucitol compounds for treating hepatitis virus infections” (G.D. Searle LLC., priority 1999, dated 1999)

Legend:
[1] = tested on: HepG 2.2.15 (2.2.15) cells; experiment: IC-90 values taken as basis for the combostat serial dilutions; type: cell-based; conditions: Hepatitis B virus, HepG2.2.15; T. Block and G. Jacob, unpublished observation
Protocol: The anti-hepatitis B virus effect of […] (3TC) alone and in combination with N-nonyl-DNJ was determined according to Korba ((1996) Antiviral Research 29(1):49-51), using the "combostat" strategy (Comstat Program, Combostat Corp., Duluth, MN). The combostat method involves serially diluting the IC-90 of each compound. The IC-90 of N-nonyl-DNJ has been determined to be between 4 and 10 µg/ml (T. Block and G. Jacob, unpublished observation). The accepted IC-90 for 3TC in HepG 2.2.15 (2.2.15) cells is 300nM to 500nM (Doong et al. (1991) Proc. Natl. Acad. Sci. USA 88:8495-8499).

[2] = tested on: woodchuck hepatitis virus (WHV); experiment: Woodchuck model: total HBV DNA by quantitative PCR; type: in vivo; conditions: 0, 12.5, 25, 50, 100 mg/kg/day BID oral, 4 weeks
Protocol: (§1) Therefore, five groups of four animals each (all groups had both sexes, all but the control had two of each sex) were assigned to 0, 12.5, 25, 50, and 100 mg/kg/day with BID oral dosing. These were lab-reared wild animals. All animals were infected with woodchuck hepatitis virus (WHV) as neonates, and had been tested positive on serological tests for WHV surface antigen. Blood samples were drawn one week prior to dosing (-1 week), immediately before dosing (0 weeks), weekly during dosing (1, 2, 3, and 4 weeks), and after the end of dosing (5, 6, 8, and 10 weeks).
(§2) There are two measures of drug efficacy: reduction in total HBV DNA (measured by quantitative PCR), and reduction in HBV DNA from capsids with intact surface glycoproteins, which is the active form of the virus (measured by an ELISA-like immune precipitation assay followed by quantitative PCR).
The total HBV DNA levels were essentially constant over time within each animal (data not shown). There was a faint hint of a dose-response relationship with decreasing levels of virus with increasing levels of drug, except that three animals at the highest dose had very high virus levels. It is not possible to conclude that there is any relationship between dose of N-nonyl-DNJ and total HBV DNA. […]

[3] = tested on: woodchuck hepatitis virus (WHV); experiment: Woodchuck model: immune precipitated HBV DNA (IPDNA), immune precipitation followed by quantitative PCR; type: in vivo
Protocol: as §1, §2
Substantial variation existed in the IPDNA assay, both between assay runs and within assay runs (data not shown). Even so, it was possible to observe and model a slope over weeks 0-4 which is generally increasing for low dose animals and decreasing for high dose animals.
Before models are fitted to the data, a log transform was applied because: 1) the variation in IPDNA increases with increasing IPDNA values; the log transformation gives values with a nearly constant variation, and 2) it is expected that drug effects will appear as a constant multiplier of the IPDNA level. Because there are zero values of IPDNA, a small value (about 1/2 of the smallest non-zero value) was added to all values before the log transform.
Two approaches were used to model the changes in slope to week with dose of N-nonyl-DNJ: a linear modeling approach and a nonlinear model. Both approaches assume that the (linear) rate of change of the Log(IPDNA) measure over the dosing period is the "right" measure to reflect the effect of the drug on the virus. Both approaches are fit in stages, and the first stage is common to both approaches. First, a simple straight line regression model is fit using weeks 0-4 to predict log(IPDNA + 10) separately for each animal by run combination. In the second stage, the response variable is the slope fitted in the first stage.
For the linear approach, a model is fit with slope to week as the response where run is considered a block, dose has a significant effect (almost all of this effect is due to a slope to dose), and the relevant error for testing the effect of dose is the variation among animals treated alike (after the adjustment for the runs as blocks). This is similar to using the calibration data within each run to first adjust each run's data to a common virus DNA concentration; the difference is that here the data from the woodchucks are used for the run adjustment rather than only the calibration data.
For the nonlinear approach, a four parameter logistic model is fit with the slope to week as the response and the dose as the predictor. Again, run is considered a block, but because no run has all weeks, it is not possible to fully reflect the blocking in the nonlinear approach. […] The average maximum slope observed was 2.71 additional Log(IPDNA µg/mL)/week, or an increase of about […], the average minimum slope observed with N-nonyl-DNJ is 0.31 fewer Log (IPDNA µg/mL)/week), or about a decrease of about […]. The slopes, the fitted model, the parameter estimates from the model, and the approximate standard errors for these parameters are all shown in Figure 3. […] Whether in woodchucks or humans, the effective dose of both the N-alkyl-DNJ and nucleoside or nucleotide antiviral agent administered in combination therewith can be administered in two equal daily subdoses (i.e., B.I.D.).

Hepatitis B Virus = experiment: HBV secretion by chronically HBV secreting HepG2.2.15 cells (preS1 immunoprecipitation of secreted virions, PCR of viral DNA); type: cell-based; conditions: 3 days, control = 100%
Protocol: The anti-hepatitis B virus activity and effect on cell viability of a number of different N-substituted-1,5-dideoxy-1,5-imino-D-glucitol compounds were assessed using an in vitro assay employing chronically hepatitis B virus secreting HepG2.2.15 cells. The method employed was essentially that described in Block et al. (1994) Proc. Natl. Acad. Sci. USA 91:2235-2239.

HepG2.2.15 cells = type: cell-based
[4] = concentration [200] (unit not given)
[5] = concentration [1000] (unit not given)

Structure (SMILES)	IC90 [1] [µg/mL]	effect on total HBV DNA measurements [2]	EC50 ([3]; four parameter logistic model, slope of Log(IPDNA + 10) to week vs dose) [mg/kg/BID dose]	average maximum slope observed ([3]; weeks 0-4 of dosing)	average minimum slope observed ([3]; weeks 0-4 of dosing)	decrease of IPDNA at average minimum slope ([3]; weeks 0-4 of dosing)	increase of IPDNA at average maximum slope ([3]; weeks 0-4 of dosing)	approximate effective monotherapy dose ([3]; woodchucks, oral)	Relative amount of HBV secreted, as a % of control (Hepatitis B Virus; [4])	Relative amount of HBV secreted, as a % of control (Hepatitis B Virus; [5])	appearance of cells by gross microscopic examination (HepG2.2.15 cells)
CCCCCCCCCN1C[C@H](O)[C@@H](O)[C@H](O)[C@H]1CO [Compound 1, N-(n-nonyl)-1,5-dideoxy-1,5-imino-D-glucitol]	4 to 10	no effect	7.88	2.71 additional Log(IPDNA µg/mL)/week	0.31 fewer Log (IPDNA µg/mL)/week	about 25 %/week	about 150 %/week	about 16 mg/kg/day			
CCCCN1C[C@H](O)[C@@H](O)[C@H](O)[C@H]1CO [NBDNJ, N-(n-butyl-)-1,5-dideoxy-1,5-imino-D-glucitol, reference compound]									37.0 +/-13(n = 15) %	3.2 +/-5(n = 15) %	
CCC(CC)CN1C[C@H](O)[C@@H](O)[C@H](O)[C@H]1CO [Compound 3, N-(2-ethylbutyl)-1,5-dideoxy-1,5-imino-D-glucitol]									5.0 +/-30 (n = 3) %	5.0 +/-20(n = 3) %	unremarkable (healthy)
